# Laboratory results: patent publication US8975285B2, “P38 MAP kinase inhibitors” (Respivert Ltd., priority 2008, dated 2015)
# Experiments:
# [1] = tested on: differentiated U937 cells; assay: MTT assay in differentiated U937 cells; assay type: cell-based, human; parameters: key: Negative: no significant toxic effect observed in MTT assay
# Procedure: Differentiated U937 cells were pre-incubated with compound for 4 hrs in 5% FCS or 10% FCS for 24 hrs and 72 hr. […] After 1 hr incubation, the media were removed, 200 ul of DMSO added to each well and the plates were shaken lightly for 1 h prior to reading the absorbance at 550 nm. The percentage loss of cell viability was calculated for each well relative to vehicle (0.5% DMSO)-treatment. Consequently an apparent increase in cell viability for drug treatment relative to vehicle is tabulated as a negative percentage.
# [2] = tested on: LPS-induced neutrophil accumulation in BALF; assay: LPS-induced neutrophilia in the mouse: duration of action; assay type: in vivo; conditions: intra tracheal dosing, 12 or more hours of pre-dosing, BALF 8 h after LPS
# Procedure: Non-fasted mice were dosed by the intra tracheal route with either vehicle, or the test substance at the time points (“pre-dose”) indicated with respect to the start of LPS treatment. At T=0, mice were placed into an exposure chamber and exposed to LPS. Eight hours after LPS challenge, animals were under anesthetized, the trachea cannulated and BALF extracted by infusing and withdrawing 1 ml of PBS into the lungs via a tracheal catheter. Total and differential white cell counts in the BALF samples were measured using a Neubaur haemocytometer. Cytospin smears of the BALF samples were prepared by centrifugation at 200 rpm for 5 min at room temperature and stained using a DiffQuik stain system (Dade Behring). Cells were counted using oil immersion microscopy.
# Data for neutrophil numbers is reported as total and differential number (test substance relative to vehicle) of cells per mL of BALF, mean±S.E.M. (n=8).
structure (smiles),measurement,setting,value
"COCC(=O)Nc1cc(COc2ccc(NC(=O)Nc3cc(C(C)(C)C)nn3-c3ccc(C)cc3)c3ccccc23)ccn1 [Example 1, N-(4-((4-(3-(3-tert-Butyl-1-p-tolyl-1H-pyrazol-5-yl)ureido)naphthalen-1-yloxy)methyl)pyridin-2-yl)-2-methoxyacetamide]","Differentiated U937 cells MTT Assay 4, 24 h (10 μg/ml)",[1],Negative^2
same,inhibition of LPS-induced neutrophil accumulation,[2],significant inhibition
